The results in this text go back to US8304393B2, “Epithelial cell growth promoter” (Patent Technology Development Inc., priority 2004, dated 2012).

One test has as its system C3H/He female mice. As to the kind of experiment: Hair regrowth on shaved dorsal skin of telogen-phase mice (Example 6). The following applies: 1 mg/ml, 100 μl/mouse once a day topical, 14th day after application. It counts as in vivo. The protocol:
A 1 mg portion of the pentapeptide obtained in Example 3 was dissolved in 300 μl of water for injection (product code “057-00456”, a product by Otsuka Pharmaceutical Co.), to which 200 μl of propylene glycol (product code “161-05006”, a product by Wako Pure Chemical Industries) and 500 μl of ethyl alcohol (product code “057-00456”, a product by Wako Pure Chemical Industries) were then added and they were mixed together to prepare an epithelial cell growth promoter in a concentration of 1 mg/ml.
Ten 7-week-old C3H/He female mice were raised for acclimatization for 1 week, and the hair on the dorsal of each mouse in the telogen phase of a hair cycle was shaved with an electric clipper and an electric shaver to prepare experimental animals.
Next, these experimental animals were divided into two groups each containing five mice. The epithelial cell growth promoter was applied at 100 μl/mouse once a day to the shaved area of the first group from the 3rd day after shaving on, while only a mixture of water for injection, propylene glycol, and ethyl alcohol (3:2:5 by volume) was applied as a control to the second group.
Next, these images were computer-processed to calculate with image analysis software the ratio of the hair-regrowth area (the number of pixels of hair-regrowth area/the number of pixels of shaved area) as percentages. […]

In a further test the test system is HBKs. Description: HBK growth test (Example 7, AlamarBlue). It counts as cell-based, C3H/HeN mouse. The settings on record: for effect on the HBK growth as compared with that of the control: 4 days culture. The text has this: (§1) To confirm the cell selectivity of the oligopeptide obtained in Example 3 as an epithelial cell growth promoter, the presence or absence of the cell growth-promoting effect on cells existing in skin tissues, that is, HBKs, epidermal cells, dermal fibroblasts, and hair papilla cells, was examined in the following manner. Incidentally, the same culture medium and test medium as in Example 5 were used.
(§2) The skin of a 5 day-old C3H/HeN mouse was aseptically collected and cut with a surgical knife into samples of strips of approximately 2-mm-wide skin slices. The above-mentioned samples were immersed in a solution prepared by dissolving 500 U/ml of dispase (lot No. 0101, a product by GODO SHUSEI CO.) in DMEM (product code “D-5523”, a product by Sigma) containing 5% by mass of FBS (lot No. 0101, a product by Cansera International Inc.), and then kept standing at 4° C. for 16 hours. Subsequently, epidermis tissues were ablated with tweezers from the skin slices and separated from dermis tissues. The thus obtained epidermis tissues were subjected to the separation of epidermal cells, and the dermis tissues were subjected to the separation of HBKs and dermal fibroblasts.
The thus obtained dermis tissues were immersed in PBS (−) (product code “P-4417”, a product by Sigma) and cut into strips with opthalmological scissors. The strips were immersed into a solution prepared by dissolving 0.2% by mass of collagenase (lot No. 001014W, a product by Nitta Gelatin Inc.) in DMEM containing 5% by mass of FBS, and then digested at 37° C. for 1 hour. The thus obtained dermis digestion solution was centrifuged at 1000 rpm for 5 minutes. The supernatant was removed, and the residue was supplemented with PBS (−) and gently pipetted to prepare a dermis suspension.
For separating dermal fibroblasts and hair bulbs, this dermis suspension was kept standing for 15 minutes to precipitate only the hair bulbs. The “standing to precipitation” procedure was repeated three times. The thus obtained hair bulbs were immersed in a solution preparing by dissolving 0.25% by mass of trypsin in 2.65 mM aqueous EDTA solution, and then treated at 37° C. for 5 minutes to prepare a dispersion solution of HBKs.
Next, this dispersion solution was centrifuged at 1000 rpm for 5 minutes. After this centrifugation, the supernatant was removed. The thus obtained HBKs were dispersed in a culture medium, then inoculated into a collagen-coated 96-well microplate, and cultured at 37° C. in an atmosphere containing 5% CO2.
(§3) A 1 mg portion of the pentapeptide obtained in Example 3 was added to 232.8 μl of a test medium and dissolved by stirring to prepare a 10 mM solution. Subsequently, this 10 mM solution was stepwise diluted to prepare 6 types of sample solutions each in a concentration of 100 μM (No. 1), 30 μM (No. 2), 10 μM (No. 3), 3 μM (No. 4), 1 (No. 5), and 0.3 μM (No. 6). Only a test medium was used as a control.
(§4) After 24 hours from the inoculation of the cells, the culture solutions were removed, and the cultured cells were washed with an MCDB153 solution. Each of the above mentioned sample solutions was added to the cultured cell at 100 μl/well and cultured at 37° C. in an atmosphere containing 5% CO2. After 4 days, AlamarBlue reagent (registered trademark, cat. No. DAL1100, lot No. AB083002, a product by Biosource International Inc.) was added at 10 μl/well, and the culture was continued at 37° C. in an atmosphere containing 5% CO2. After 2 hours, fluorescence intensity (excitation wavelength: 544 nm, measurement wavelength: 590 nm) was measured with a microplate reader (Model “Fluoroskan Ascent FL”, manufactured by Labsystems) to evaluate the number of cells. A significant difference test was performed by Dunnett's multiple comparison test (software “Super ANOVA V.1.11”, a product by Abacus Concepts).

In another test the test system is epidermal cells. As to the kind of experiment: Epidermal cell growth test (Example 7, AlamarBlue). It counts as cell-based, C3H/HeN mouse. The settings on record: for effect on the epidermal cells as compared with that of the control: 4 days culture.
Source text: as §1, §2
The above-mentioned epidermis tissues were immersed in a solution prepared by dissolving 0.25% by mass of trypsin in 2.65 mM aqueous EDTA solution, and then treated at 37° C. for 5 minutes to prepare a dispersion solution of epidermal cells.
Subsequently, this dispersion solution was centrifuged at 1000 rpm for 5 minutes, and the supernatant was removed. The thus obtained epidermal cells were dispersed in a culture medium, then inoculated into a collagen-coated 96-well microplate, and cultured at 37° C. in an atmosphere containing 5% CO2.
as §3, §4
A general note: The colour change of resazurin is a common sign of viable cells or microbes.

In a further test the test system is dermal fibroblasts. As to the kind of experiment: Dermal fibroblast growth test (Example 7, AlamarBlue). It counts as cell-based, C3H/HeN mouse. The following applies: 0.3-100 μM, 3 days culture.
Source text: as §1
The skin of a 5 day-old C3H/HeN mouse was aseptically collected and cut with a surgical knife into samples of strips of approximately 2-mm-wide skin slices. The above-mentioned samples were immersed in a solution prepared by dissolving 500 U/ml of dispase (lot No. 0101, a product by GODO SHUSEI CO.) in DMEM (product code “D-5523”, a product by Sigma) containing 5% by mass of FBS (lot No. 0101, a product by Cansera International Inc.), and then kept standing at 4° C. for 16 hours. Subsequently, epidermis tissues were ablated with tweezers from the skin slices and separated from dermis tissues. […]
(§5) After 24 hours from the inoculation of the cells, the culture solutions were removed, and the cultured cells were washed with a DMEM solution. […] After 2 hours, fluorescence intensity (excitation wavelength: 544 nm, measurement wavelength: 590 nm) was measured with a microplate reader (Model “Fluoroskan Ascent FL”, manufactured by Labsystems) to evaluate the number of cells.

The next test relates to human hair papilla cells. As to the kind of experiment: Hair papilla cell growth test (Example 7, AlamarBlue). The following applies: 0.3-100 μM, 3 days culture. In kind it is cell-based.
Source text: as §1
Moreover, human hair papilla cells (product code “602-05”, a product by TOYOBO CO.) were dispersed in a culture medium, then inoculated into a collagen-coated 96-well microplate, and cultured at 37° C. in an atmosphere containing 5% CO2.
A 1 mg portion of the pentapeptide obtained in Example 3 was added to 232.8 μl of a test medium and dissolved by stirring to prepare a 10 mM solution. Subsequently, this 10 mM solution was stepwise diluted to prepare 6 types of sample solutions each in a concentration of 100 μM (No. 1), 30 μM (No. 2), 10 μM (No. 3), 3 μM (No. 4), 1 (No. 5), and 0.3 μM (No. 6). […]
as §5

As to `CC[C@H](C)[C@H](NC(=O)[C@@H]1CCCN1C(=O)CN)C(=O)NCC(=O)N[C@@H](CO)C(=O)O` (racemic) [Example 3, glycyl-prolyl-isoleucyl-glycyl-serine], the “hair growth promotion observed in pictures of the shaved areas” value with C3H/He female mice (compared with control group) is “evident hair growth promotion”. In addition, the “ratio of the hair-regrowth area” value in the test on C3H/He female mice (n=5, control 36.9±5.7%, p<0.01) turned out to be 66.6±3.5%. Also, the “effect on the HBK growth as compared with that of the control” value came out at 101% in the test with HBKs (0.3 μM (No. 6)); 111% with HBKs (1 μM (No. 5)); 124% in the test on HBKs (3 μM (No. 4)); 141% in the test on HBKs (10 μM (No. 3)); 142% in the test with HBKs (30 μM (No. 2)); 141% in the test on HBKs (100 μM (No. 1)). Further, the “concentration at which significant difference from control could be noted” value in the test on HBKs (HBKs, p<0.01, Dunnett's test) was at least 1 µM; in the test on epidermal cells (epidermal cells, 1 μM: p<0.05, 3 μM or higher: p<0.01), at least 1 µM. In addition, the “effect on the epidermal cells as compared with that of the control” value worked out at 102% with epidermal cells (0.3 μM (No. 6)); 110% in the test with epidermal cells (1 μM (No. 5)); 118% in the test with epidermal cells (3 μM (No. 4)); 124% in the test on epidermal cells (10 μM (No. 3)); 127% in the test with epidermal cells (30 μM (No. 2)); 127% in the test on epidermal cells (100 μM (No. 1)). The “influence on dermal fibroblast growth” value in the test with dermal fibroblasts is on record as “no influence”. Further, in the test on human hair papilla cells, the “influence on hair papilla cell growth” value is reported as “no influence”.
